In ChEMBL document CHEMBL4725469, “Hydrogen Peroxide Inducible JAK3 Covalent Inhibitor: Prodrug for the Treatment of RA with Enhanced Safety Profile” (ACS Med Chem Lett, 2020):
Calls of active or inactive are those of the source. The rule behind the calls is not given here.

Experiments:
[1] = Tmax in Sprague-Dawley rat at 20 mg/kg, ip measured for 0.8 to 24 hrs by LC-MS/MS analysis; format: ADME, organism-based; settings: in vivo, time 0.8-24 hrs
[2] = MRT (0 to infinity) in Sprague-Dawley rat at 20 mg/kg, ip measured for 0.8 to 24 hrs by LC-MS/MS analysis; format: ADME, organism-based; settings: in vivo, time 0.8-24 hrs
[3] = Toxicity in ICR mouse assessed as effect on body weight at 100 mg/kg, ip administered for 14 days; format: organism-based; settings: in vivo, 336 h, time 14 day
[4] = Aqueous solubility of compound at pH 7.4; format: physicochemical; settings: buffer
[5] = system: Mus musculus; test: Antiarthritic activity in collagen/complete freund's adjuvant-induced rheumatoid arthritis DBA/1J mouse model assessed as inhibition of feet swelling at 10 mg/kg, ip administered for 14 days by H and E staining based analysis; format: functional, organism-based; settings: time 14.0 day
[6] = Toxicity in ICR mouse assessed as inflammatory inflammation in lungs at 100 mg/kg, ip administered for 14 days; format: organism-based; settings: in vivo, 336 h, time 14 day
[7] = Cmax in Sprague-Dawley rat at 20 mg/kg, ip measured for 0.8 to 24 hrs by LC-MS/MS analysis; format: ADME, organism-based; set-up: route intraperitoneal, dose 20 mg/kg, time 0.8-24; settings: in vivo
[8] = target: T1, Tyrosine-protein kinase JAK3 (Mus musculus) (UniProt Q62137); test: Inhibition of JAK3 in mouse BaF3/TEL-JAK3 cells assessed as effect on STAT3 phosphorylation at 0.125 to 2 uM by Western blot analysis; format: cell-based; settings: dose microM 0.125-2
T1 sequence (whole entry): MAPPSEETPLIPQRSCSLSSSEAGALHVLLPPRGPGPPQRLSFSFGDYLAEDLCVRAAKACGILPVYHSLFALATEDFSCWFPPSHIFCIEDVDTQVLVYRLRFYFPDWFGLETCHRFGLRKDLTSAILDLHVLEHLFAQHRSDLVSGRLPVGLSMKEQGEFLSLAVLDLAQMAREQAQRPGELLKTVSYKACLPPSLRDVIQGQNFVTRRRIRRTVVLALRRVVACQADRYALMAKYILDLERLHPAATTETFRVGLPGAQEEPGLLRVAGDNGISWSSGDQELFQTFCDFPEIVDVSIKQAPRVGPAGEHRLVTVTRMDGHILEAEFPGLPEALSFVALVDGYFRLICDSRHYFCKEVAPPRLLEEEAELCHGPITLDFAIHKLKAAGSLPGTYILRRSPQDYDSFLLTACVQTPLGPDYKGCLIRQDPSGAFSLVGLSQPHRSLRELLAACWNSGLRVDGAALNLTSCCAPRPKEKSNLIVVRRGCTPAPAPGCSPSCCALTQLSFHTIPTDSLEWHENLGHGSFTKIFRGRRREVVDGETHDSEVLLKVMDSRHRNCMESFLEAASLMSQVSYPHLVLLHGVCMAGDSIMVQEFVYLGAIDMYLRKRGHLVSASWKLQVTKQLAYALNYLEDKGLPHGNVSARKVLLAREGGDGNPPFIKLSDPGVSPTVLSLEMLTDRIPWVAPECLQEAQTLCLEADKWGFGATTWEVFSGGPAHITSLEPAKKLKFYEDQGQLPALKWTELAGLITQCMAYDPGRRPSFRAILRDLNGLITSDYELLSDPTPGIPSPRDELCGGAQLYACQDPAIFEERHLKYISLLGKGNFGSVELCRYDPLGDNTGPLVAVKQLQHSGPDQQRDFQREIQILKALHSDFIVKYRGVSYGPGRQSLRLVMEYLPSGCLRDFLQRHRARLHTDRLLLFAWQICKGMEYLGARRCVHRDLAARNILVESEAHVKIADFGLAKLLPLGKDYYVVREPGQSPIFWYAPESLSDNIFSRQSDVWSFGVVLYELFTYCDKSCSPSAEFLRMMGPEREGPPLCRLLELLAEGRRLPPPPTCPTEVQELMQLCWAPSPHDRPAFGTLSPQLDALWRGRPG

[9] = Apparent volume of distribution in Sprague-Dawley rat at 20 mg/kg, ip measured for 0.8 to 24 hrs by LC-MS/MS analysis; format: ADME, organism-based; settings: in vivo, time 0.8-24 hrs
[10] = target: T1, Tyrosine-protein kinase JAK3 (Mus musculus); test: Inhibition of JAK3 in mouse BaF3/TEL-JAK3 cells assessed as effect on STAT5 phosphorylation at 0.125 to 2 uM by Western blot analysis; format: cell-based; settings: dose microM 0.125-2
[11] = Dissociation constant, pKa of the compound; format: physicochemical
[12] = Drug level in ankle joint of collagen/complete freund's adjuvant-induced rheumatoid arthritis DBA/1J mouse model at 20 mg/kg, ip by LC-MS/MS analysis; format: ADME, organism-based; settings: in vivo, read-out: Ct
[13] = Permeability of compound at pH 7.4 by PAMPA assay; format: ADME; settings: read-out: permeability
[14] = Half life in Sprague-Dawley rat at 20 mg/kg, ip measured for 0.8 to 24 hrs by LC-MS/MS analysis; format: ADME, organism-based; settings: in vivo, time 0.8-24 hrs
[15] = Toxicity in ICR mouse assessed as increase in liver weight at 100 mg/kg, ip administered for 14 days; format: organism-based; settings: in vivo, 336 h, time 14 day
[16] = Toxicity in ICR mouse assessed as increase in spleen weight at 100 mg/kg, ip administered for 14 days; format: organism-based; settings: in vivo, 336 h, time 14 day
[17] = Apparent clearance in Sprague-Dawley rat at 20 mg/kg, ip measured for 0.8 to 24 hrs by LC-MS/MS analysis; format: ADME, organism-based; settings: in vivo, time 0.8-24 hrs
[18] = Toxicity in ICR mouse assessed as inflammatory inflammation in heart at 100 mg/kg, ip administered for 14 days; format: organism-based; settings: in vivo, 336 h, time 14 day
[19] = AUC in Sprague-Dawley rat at 20 mg/kg, ip measured for 0.8 to 24 hrs by LC-MS/MS analysis; format: ADME, organism-based; set-up: route intraperitoneal, dose 20 mg/kg, time 0.8-24; settings: in vivo
[20] = Stability in mouse plasma at 20 uM after 0.25 to 24 hrs by RP-UPLC-UV analysis; format: ADME, cell-free; settings: time 0.25-24 hrs, read-out: Stabilty
[21] = system: Mus musculus; test: In vivo inhibition of JAK3 in collagen/complete freund's adjuvant-induced rheumatoid arthritis DBA/1J mouse model assessed as effect on STAT5 phosphorylation in lung at 20 mg/kg, ip administered for 14 days by Western blot analysis; format: functional, organism-based; settings: time 14.0 day
[22] = system: Mus musculus; test: Antiarthritic activity in ip dosed collagen/complete freund's adjuvant-induced rheumatoid arthritis DBA/1J mouse model assessed as reduction in G-CSF level in serum administered for 14 days by ELISA; format: functional, organism-based; settings: dose mg/kg 5-20, time 14.0 day
[23] = system: Mus musculus; test: Antiarthritic activity in DBA/1J mouse model assessed as effect on collagen/complete freund's adjuvant-induced eroded synovial cells in ankle joints at 20 mg/kg, ip administered for 14 days by H and E staining analysis; format: functional, organism-based; settings: time 14.0 day
[24] = system: Mus musculus; test: Antiarthritic activity in ip dosed collagen/complete freund's adjuvant-induced rheumatoid arthritis DBA/1J mouse model assessed as reduction in IL-2 level in serum administered for 14 days by ELISA; format: functional, organism-based; settings: dose mg/kg 5-20, time 14.0 day
[25] = system: Mus musculus; test: In vivo inhibition of JAK3 in collagen/complete freund's adjuvant-induced rheumatoid arthritis DBA/1J mouse model assessed as effect on STAT5 phosphorylation in spleen at 20 mg/kg, ip administered for 14 days by Western blot analysis; format: functional, organism-based; settings: time 14.0 day
[26] = system: Mus musculus; test: Antiarthritic activity in ip dosed collagen/complete freund's adjuvant-induced rheumatoid arthritis DBA/1J mouse model assessed as reduction in serum amyloid A level administered for 14 days by ELISA; format: functional, organism-based; settings: dose mg/kg 5-20, time 14.0 day
[27] = system: Mus musculus; test: Antiarthritic activity in ip dosed collagen/complete freund's adjuvant-induced rheumatoid arthritis DBA/1J mouse model assessed as inhibition of feet swelling administered for 14 days by H and E staining based analysis; format: functional, organism-based; settings: dose mg/kg 5-20, time 14.0 day
[28] = system: Mus musculus; test: In vivo inhibition of JAK3 in collagen/complete freund's adjuvant-induced rheumatoid arthritis DBA/1J mouse model assessed as effect on STAT5 phosphorylation in liver at 20 mg/kg, ip administered for 14 days by Western blot analysis; format: functional, organism-based; settings: time 14.0 day
[29] = Prodrug activation in collagen/complete freund's adjuvant-induced rheumatoid arthritis DBA/1J mouse model assessed as Z)-2-((5-(1-cyclohexyl-1,6-dihydroimidazo[4,5-d]pyrrolo[2,3-b]pyridin-2-yl)furan-2-yl)(hydroxy)methyl)-3-(dimethylamino)-3-((4-(4,4,5,5-tetramethyl-1,3,2-dioxaborolan-2-yl)benzyl)oxy)acrylonitrile level in ankle joint at […], ip by LC-MS/MS analysis; format: organism-based; settings: in vivo, 20 mg/kg, read-out: Ct
[30] = Stability in phosphate buffer saline at pH 7.4 after 0.25 to 24 hrs by RP-UPLC-UV analysis; format: physicochemical; settings: time 0.25-24 hrs
[31] = Prodrug activation in DMSO assessed as H2O2 mediated prodrug release after 4 hrs in presence of 0.1 uM H2O2 after 4 hrs by RP-HPLC-UV analysis
[32] = system: Mus musculus; test: Antiarthritic activity in collagen/complete freund's adjuvant-induced rheumatoid arthritis DBA/1J mouse model assessed as inhibition of feet swelling at 20 mg/kg, ip administered for 14 days by H and E staining based analysis; format: functional, organism-based; settings: time 14.0 day
[33] = system: Mus musculus; test: Antiarthritic activity in DBA/1J mouse model assessed as effect on collagen/complete freund's adjuvant-induced disordered synovial cells in ankle joints at 20 mg/kg, ip administered for 14 days by H and E staining analysis; format: functional, organism-based; settings: time 14.0 day
[34] = Stability in human plasma at 20 uM after 0.25 to 24 hrs by RP-UPLC-UV analysis; format: ADME, cell-free; settings: time 0.25-24 hrs, read-out: Stabilty
[35] = system: Mus musculus; test: In vivo inhibition of JAK3 in collagen/complete freund's adjuvant-induced rheumatoid arthritis DBA/1J mouse model assessed as effect on STAT5 phosphorylation in kidney at 20 mg/kg, ip administered for 14 days by Western blot analysis; format: functional, organism-based; settings: time 14.0 day
[36] = system: Mus musculus; test: Antiarthritic activity in DBA/1J mouse model assessed as effect on collagen/complete freund's adjuvant-induced synovial hyperplasia at 20 mg/kg, ip administered for 14 days by H and E staining analysis; format: functional, organism-based; settings: time 14.0 day
[37] = system: Mus musculus; test: In vivo inhibition of JAK3 in collagen/complete freund's adjuvant-induced rheumatoid arthritis DBA/1J mouse model assessed as effect on STAT5 phosphorylation in heart at 20 mg/kg, ip administered for 14 days by Western blot analysis; format: functional, organism-based; settings: time 14.0 day
[38] = Stability in simulated gastric fluid measured after 0.25 to 24 hrs by RP-UPLC-UV analysis
[39] = Stability in simulated intestinal fluid incubated for 0.25 to 24 hrs by RP-UPLC-UV analysis

SMILES	Tmax [1]	MRT inf [2]	Activity [3]	solubility [4]	Cmax [7]	inhibition [8]	Vz [9]	inhibition [10]	pKa [11]	concentration [12]	Papp [13]	t1/2 [14]	Activity [15]	Activity [16]	CL(app) [17]	AUC [19]	also measured
CN(C)C(=O)/C(C#N)=C/c1ccc(-c2nc3cnc4[nH]ccc4c3n2C2CCCCC2)o1	0.17 h	3.84 h	Toxic	0.719 mg/kg	455.37 ng/mL	Active	27.96 L/kg	Active	10.1	1070 nM	14.7 ×10⁻⁶ cm/s	2.36 h	Toxic	Toxic	100 mL/min/kg	331.91 µg·h/mL	inhibition [5]: Active; Activity [6]: Toxic; Activity [18]: Toxic
CN(C)/C(OCc1ccc(B2OC(C)(C)C(C)(C)O2)cc1)=C(\C#N)C(O)c1ccc(-c2nc3cnc4[nH]ccc4c3n2C2CCCCC2)o1 (stereo not given)	0.25 h	2.38 h	Non-Toxic	0.011 mg/kg	983.33 ng/mL	Active	8.7 L/kg	Active	10.7	290 nM	56.4 ×10⁻⁶ cm/s	2.92 h	Non-Toxic	Non-Toxic	35 mL/min/kg	963.5 µg·h/mL	remaining at 20 µM [20]: > 95%; inhibition [21]: inactive; Activity [22]: Active; Activity [23]: Active; Activity [24]: Active; inhibition [25]: inactive; Activity [26]: Active; inhibition [27]: Dose-dependent effect; inhibition [28]: inactive; concentration [29]: 1130 nM; Stabilty [30]: > 95%; Drug metabolism [31]: Not Active; inhibition [32]: Active; Activity [33]: Active; remaining at 20 µM [34]: > 95%; inhibition [35]: inactive; Activity [36]: Active; inhibition [37]: inactive; Stability [38]: > 95%; Stability [39]: > 95%
